# Patent publication US20090088380A1, “GHRH ANALOGS AND THERAPEUTIC USES THEREOF” (priority 2007, published 2009)
# Non-standard residues stand in square brackets, D forms with d. Residues, ends and D or L forms follow the SMILES beside them.
# Tested on: Rat Growth Hormone
# Assay: In vivo GH secretion in adult female Sprague-Dawley rats, single SC or IV injection, RIA
# Conditions: for GH AUC 45 min / GH AUC 300 min / GH AUC 120 min: in ng·min/mL (unit assumed)
# Description: In order to assess such use of the GHRH analogs, the following experiments were undertaken. More specially, the goal was to assess the pharmacodynamic and pharmacokinetic profiles and acute toxicity of GHRH analog #5 when administered once by subcutaneous or intravenous injection to female Sprague-Dawley rats followed by a 14-day observation period and the pharmacodynamic profile in a male Beagle dog when the GHRH analog was administered at escalating doses to the same dog by subcutaneous injection with at least 2-day washout period. The above GHRH analog is a variation of a synthetic acetate salt of an amidated synthetic 29-amino acid peptide that corresponds to the amino-terminal segment of the naturally-occurring human growth hormone—releasing hormone (GHRH) with four amino acid substitutions in positions 2, 10, 15, and 22.
# Human GHRH analog #5 in 0.9% sodium chloride for injection USP was administered once either by intravenous (IV) or subcutaneous (SC) injection to female rats followed by a 14-day observation period, as shown in Table 2. Prior to administration, all dosing formulations were filtered using a 0.22 μm filter to ensure sterility. The actual amount of GHRH analog #5 administered was calculated and adjusted based on the animal's most recent body weight. Dosing started at approximately the same time each day, commencing at 9:00 am ±30 minutes.
# For pharmacodynamic investigations, blood samples (approximately 1.3 ml) were collected from 2 animals per group per time point (maximum 3 time points/animal) via a jugular venipuncture at the following time points: […] All blood samples were collected into potassium EDTA tubes and centrifuged under refrigeration (2 to 8° C., 1500 g for 10 minutes).
# Rat Growth Hormone Determination • Plasma GH was determined by Linco Diagnostic Services using their own kit. Linco's Rat Growth Hormone radioimmunoassay kit (RIA) (RGH-45HK) is intended for the quantitative determination of Rat Growth Hormone in serum, plasma, and tissue culture media. It is a completely homologous assay since the antibody was raised against recombinant Rat Growth Hormone and both the tracer and the standard are prepared with the same recombinant Rat Growth Hormone. The kit includes standards, antibody, tracer, quality controls, precipitating reagents and buffer necessary to complete a RIA. The assay was conducted under the following conditions: overnight; equilibrium incubation at room temperature; sample volume: 100 μl serum, plasma, or cell culture media. The label used was 125I-Rat Growth Hormone (20,000 CPM/tube).
smiles,measurement,setting,value
"CC[C@H](C)[C@H](NC(=O)[C@H](C)NC(=O)[C@H](CC(=O)O)NC(=O)[C@@H](C)NC(=O)[C@@H](N)Cc1ccc(O)cc1)C(=O)N[C@@H](Cc1ccccc1)C(=O)N[C@H](C(=O)N[C@@H](CC(N)=O)C(=O)N[C@@H](CO)C(=O)N[C@H](Cc1ccc(O)cc1)C(=O)N[C@@H](CCCNC(=N)N)C(=O)N[C@@H](CCCCN)C(=O)N[C@H](C(=O)N[C@@H](CC(C)C)C(=O)N[C@H](C)C(=O)N[C@@H](CCC(N)=O)C(=O)N[C@@H](CC(C)C)C(=O)N[C@@H](CO)C(=O)N[C@@H](C)C(=O)N[C@@H](CCCNC(=N)N)C(=O)N[C@@H](CCCCN)C(=O)N[C@@H](CCCCN)C(=O)N[C@@H](CC(C)C)C(=O)N[C@@H](CCC(N)=O)C(=O)N[C@@H](CC(=O)O)C(=O)N[C@H](C(=O)N[C@@H](CCSC)C(=O)N[C@@H](CO)C(=O)N[C@@H](CCCNC(=N)N)C(N)=O)[C@@H](C)CC)C(C)C)[C@@H](C)O [GHRH analog #5, [D-Ala^2, D-Tyr^10, D-Ala^15, Lys^22] hGHRH(1-29)-NH2] (H-Y[dA]DAIFTNS[dY]RKVL[dA]QLSARKKLQDIMSR-NH2)",Plasma Rat Growth Hormone,"0.001 mg/kg BW IV, 4 min",26.2 ng/mL
same,Plasma Rat Growth Hormone,"0.001 mg/kg BW IV, 10 min",25.85 ng/mL
same,Plasma Rat Growth Hormone,"0.001 mg/kg BW IV, 15 min",34.65 ng/mL
same,Plasma Rat Growth Hormone,"0.001 mg/kg BW IV, 45 min",21.15 ng/mL
same,Plasma Rat Growth Hormone,"0.001 mg/kg BW IV, 300 min",67.15 ng/mL
same,GH AUC 45 min,0.001 mg/kg BW IV,1197
same,GH AUC 300 min,0.001 mg/kg BW IV,12280
same,Plasma Rat Growth Hormone,"0.001 mg/kg BW IV, −120 min",23.85 ng/mL
same,Plasma Rat Growth Hormone,"0.001 mg/kg BW SC, 15 min",36.7 ng/mL
same,Plasma Rat Growth Hormone,"0.001 mg/kg BW SC, 30 min",14.2 ng/mL
same,Plasma Rat Growth Hormone,"0.001 mg/kg BW SC, 60 min",26.85 ng/mL
same,Plasma Rat Growth Hormone,"0.001 mg/kg BW SC, 120 min",17.8 ng/mL
same,Plasma Rat Growth Hormone,"0.001 mg/kg BW SC, 300 min",21.85 ng/mL
same,GH AUC 120 min,0.001 mg/kg BW SC,2914
same,GH AUC 300 min,0.001 mg/kg BW SC,6482
same,Plasma Rat Growth Hormone,"0.001 mg/kg BW SC, −120 min",20.15 ng/mL
same,Plasma Rat Growth Hormone,"0.01 mg/kg BW SC, 15 min",190.4 ng/mL
same,Plasma Rat Growth Hormone,"0.01 mg/kg BW SC, 30 min",31.9 ng/mL
same,Plasma Rat Growth Hormone,"0.01 mg/kg BW SC, 60 min",8.5 ng/mL
same,Plasma Rat Growth Hormone,"0.01 mg/kg BW SC, 120 min",7.6 ng/mL
same,Plasma Rat Growth Hormone,"0.01 mg/kg BW SC, 300 min",11.95 ng/mL
same,GH AUC 120 min,0.01 mg/kg BW SC,5153
same,GH AUC 300 min,0.01 mg/kg BW SC,6913
same,Plasma Rat Growth Hormone,"0.01 mg/kg BW SC, −120 min",20.4 ng/mL
same,Plasma Rat Growth Hormone,"0.03 mg/kg BW IV, 4 min",68.45 ng/mL
same,Plasma Rat Growth Hormone,"0.03 mg/kg BW IV, 10 min",254.65 ng/mL
same,Plasma Rat Growth Hormone,"0.03 mg/kg BW IV, 15 min",75.1 ng/mL
same,Plasma Rat Growth Hormone,"0.03 mg/kg BW IV, 45 min",33.4 ng/mL
same,Plasma Rat Growth Hormone,"0.03 mg/kg BW IV, 300 min",38.75 ng/mL
same,GH AUC 45 min,0.03 mg/kg BW IV,3407
same,GH AUC 300 min,0.03 mg/kg BW IV,12060
same,Plasma Rat Growth Hormone,"0.03 mg/kg BW IV, −120 min",43.15 ng/mL
same,Plasma Rat Growth Hormone,"0.03 mg/kg BW SC, 15 min",240.9 ng/mL
same,Plasma Rat Growth Hormone,"0.03 mg/kg BW SC, 30 min",39.05 ng/mL
same,Plasma Rat Growth Hormone,"0.03 mg/kg BW SC, 60 min",9.5 ng/mL
same,Plasma Rat Growth Hormone,"0.03 mg/kg BW SC, 120 min",4.6 ng/mL
same,Plasma Rat Growth Hormone,"0.03 mg/kg BW SC, 300 min",11.25 ng/mL
same,GH AUC 120 min,0.03 mg/kg BW SC,6192
same,GH AUC 300 min,0.03 mg/kg BW SC,7618
same,Plasma Rat Growth Hormone,"0.03 mg/kg BW SC, −120 min",36.1 ng/mL
same,Plasma Rat Growth Hormone,"0.1 mg/kg BW SC, 15 min",252.4 ng/mL
same,Plasma Rat Growth Hormone,"0.1 mg/kg BW SC, 30 min",43.8 ng/mL
same,Plasma Rat Growth Hormone,"0.1 mg/kg BW SC, 60 min",7.65 ng/mL
same,Plasma Rat Growth Hormone,"0.1 mg/kg BW SC, 120 min",4.45 ng/mL
same,Plasma Rat Growth Hormone,"0.1 mg/kg BW SC, 300 min",18.7 ng/mL
same,GH AUC 120 min,0.1 mg/kg BW SC,6423
same,GH AUC 300 min,0.1 mg/kg BW SC,8507
same,Plasma Rat Growth Hormone,"0.1 mg/kg BW SC, −120 min",20.4 ng/mL
same,Plasma Rat Growth Hormone,"0.3 mg/kg BW SC, 15 min",247.9 ng/mL
same,Plasma Rat Growth Hormone,"0.3 mg/kg BW SC, 30 min",133.5 ng/mL
same,Plasma Rat Growth Hormone,"0.3 mg/kg BW SC, 60 min",16.75 ng/mL
same,Plasma Rat Growth Hormone,"0.3 mg/kg BW SC, 120 min",4.00 ng/mL
same,Plasma Rat Growth Hormone,"0.3 mg/kg BW SC, 300 min",21.8 ng/mL
same,GH AUC 120 min,0.3 mg/kg BW SC,8636
same,GH AUC 300 min,0.3 mg/kg BW SC,10958
same,Plasma Rat Growth Hormone,"0.3 mg/kg BW SC, −120 min",20.7 ng/mL
same,Plasma Rat Growth Hormone,"1.00 mg/kg BW SC, 15 min",270.0 ng/mL
same,Plasma Rat Growth Hormone,"1.00 mg/kg BW SC, 30 min",155.85 ng/mL
same,Plasma Rat Growth Hormone,"1.00 mg/kg BW SC, 60 min",24.35 ng/mL
same,Plasma Rat Growth Hormone,"1.00 mg/kg BW SC, 120 min",15.85 ng/mL
same,Plasma Rat Growth Hormone,"1.00 mg/kg BW SC, 300 min",28.85 ng/mL
same,GH AUC 120 min,1.0 mg/kg BW SC,10425
same,GH AUC 300 min,1.0 mg/kg BW SC,14448
same,Plasma Rat Growth Hormone,"1.00 mg/kg BW SC, −120 min",88.95 ng/mL
same,Plasma Rat Growth Hormone,"3.0 mg/kg BW IV, 4 min",38.7 ng/mL
same,Plasma Rat Growth Hormone,"3.0 mg/kg BW IV, 10 min",36.95 ng/mL
same,Plasma Rat Growth Hormone,"3.0 mg/kg BW IV, 15 min",83.65 ng/mL
same,Plasma Rat Growth Hormone,"3.0 mg/kg BW IV, 45 min",41.6 ng/mL
same,Plasma Rat Growth Hormone,"3.0 mg/kg BW IV, 300 min",56.7 ng/mL
same,GH AUC 45 min,3.0 mg/kg BW IV,2384
same,GH AUC 300 min,3.0 mg/kg BW IV,14299
same,Plasma Rat Growth Hormone,"3.0 mg/kg BW IV, −120 min",48.6 ng/mL
same,Plasma Rat Growth Hormone,"3.00 mg/kg BW SC, 15 min",453.0 ng/mL
same,Plasma Rat Growth Hormone,"3.00 mg/kg BW SC, 30 min",181.55 ng/mL
same,Plasma Rat Growth Hormone,"3.00 mg/kg BW SC, 60 min",59.4 ng/mL
same,Plasma Rat Growth Hormone,"3.00 mg/kg BW SC, 120 min",4.45 ng/mL
same,Plasma Rat Growth Hormone,"3.00 mg/kg BW SC, 300 min",47.9 ng/mL
same,GH AUC 120 min,3.0 mg/kg BW SC,15562
same,GH AUC 300 min,3.0 mg/kg BW SC,20273
same,Plasma Rat Growth Hormone,"3.00 mg/kg BW SC, −120 min",20.05 ng/mL
same,GH secretion compared with natural hGHRH(1-44)NH2 (pulse amplitude and AUC),rat,twice larger
same,In vivo potency compared with the natural 44 amino acid GHRH,rat and dog,at least two times more potent in vivo
same,Somatotroph desensitization,"rat, highest single IV dose",induced transient somatotroph desensitization
same,"GH secretion into peripheral blood, dose dependence","rat, intravenous and subcutaneous",dose-dependent response
same,Time of peak GH secretion,"rat, intravenous injection",4 to 10 min
same,Time of peak GH secretion,"rat, single subcutaneous injection",10 to 15 min
